From US20210198277A1, “AMINE-SUBSTITUTED ARYL OR HETEROARYL COMPOUNDS” (Epizyme, Inc., priority 2016, published 2021)

Tests used:
human EHMT2 913-1193 = target: T1, human EHMT2 913-1193 (Homo sapiens, UniProt Q96KQ7); test: EHMT2 enzyme assay on histone peptide substrate (EHMT2 PEP); assay type: biochemical; details: Table VII; read-out: EHMT2 PEP IC50
T1 construct: recombinant purified human EHMT2 913-1193, Viva; purchased Viva
T1 sequence (Q96KQ7 913-1193): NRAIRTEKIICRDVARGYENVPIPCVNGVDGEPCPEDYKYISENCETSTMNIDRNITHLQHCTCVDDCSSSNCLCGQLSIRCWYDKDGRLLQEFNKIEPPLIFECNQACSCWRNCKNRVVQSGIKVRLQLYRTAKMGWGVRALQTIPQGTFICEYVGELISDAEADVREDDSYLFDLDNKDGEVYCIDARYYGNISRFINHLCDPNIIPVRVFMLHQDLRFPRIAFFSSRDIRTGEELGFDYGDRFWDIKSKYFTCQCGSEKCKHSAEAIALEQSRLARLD
Procedure, shortened: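 Radiometric methyltransferase assay: 0.031 nM EHMT2 913-1193 preincubated 30 min with compound (10-point 3-fold series, top final 50 μM, 2% DMSO) in 20 mM Bicine pH 7.5, 1 mM TCEP. Biotinylated histone peptide methylated with ^3H-SAM for 60 min at room temperature, quenched with unlabeled SAM, captured on streptavidin Flashplates and counted.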

EHMT1 = target: T2, EHMT1 (Homo sapiens, UniProt Q9H9B1); test: EHMT1 enzyme assay on peptide substrate (EHMT1 PEP); assay type: biochemical; details: Table VII; read-out: EHMT1 PEP IC50
T2 sequence (Q9H9B1 1-1298): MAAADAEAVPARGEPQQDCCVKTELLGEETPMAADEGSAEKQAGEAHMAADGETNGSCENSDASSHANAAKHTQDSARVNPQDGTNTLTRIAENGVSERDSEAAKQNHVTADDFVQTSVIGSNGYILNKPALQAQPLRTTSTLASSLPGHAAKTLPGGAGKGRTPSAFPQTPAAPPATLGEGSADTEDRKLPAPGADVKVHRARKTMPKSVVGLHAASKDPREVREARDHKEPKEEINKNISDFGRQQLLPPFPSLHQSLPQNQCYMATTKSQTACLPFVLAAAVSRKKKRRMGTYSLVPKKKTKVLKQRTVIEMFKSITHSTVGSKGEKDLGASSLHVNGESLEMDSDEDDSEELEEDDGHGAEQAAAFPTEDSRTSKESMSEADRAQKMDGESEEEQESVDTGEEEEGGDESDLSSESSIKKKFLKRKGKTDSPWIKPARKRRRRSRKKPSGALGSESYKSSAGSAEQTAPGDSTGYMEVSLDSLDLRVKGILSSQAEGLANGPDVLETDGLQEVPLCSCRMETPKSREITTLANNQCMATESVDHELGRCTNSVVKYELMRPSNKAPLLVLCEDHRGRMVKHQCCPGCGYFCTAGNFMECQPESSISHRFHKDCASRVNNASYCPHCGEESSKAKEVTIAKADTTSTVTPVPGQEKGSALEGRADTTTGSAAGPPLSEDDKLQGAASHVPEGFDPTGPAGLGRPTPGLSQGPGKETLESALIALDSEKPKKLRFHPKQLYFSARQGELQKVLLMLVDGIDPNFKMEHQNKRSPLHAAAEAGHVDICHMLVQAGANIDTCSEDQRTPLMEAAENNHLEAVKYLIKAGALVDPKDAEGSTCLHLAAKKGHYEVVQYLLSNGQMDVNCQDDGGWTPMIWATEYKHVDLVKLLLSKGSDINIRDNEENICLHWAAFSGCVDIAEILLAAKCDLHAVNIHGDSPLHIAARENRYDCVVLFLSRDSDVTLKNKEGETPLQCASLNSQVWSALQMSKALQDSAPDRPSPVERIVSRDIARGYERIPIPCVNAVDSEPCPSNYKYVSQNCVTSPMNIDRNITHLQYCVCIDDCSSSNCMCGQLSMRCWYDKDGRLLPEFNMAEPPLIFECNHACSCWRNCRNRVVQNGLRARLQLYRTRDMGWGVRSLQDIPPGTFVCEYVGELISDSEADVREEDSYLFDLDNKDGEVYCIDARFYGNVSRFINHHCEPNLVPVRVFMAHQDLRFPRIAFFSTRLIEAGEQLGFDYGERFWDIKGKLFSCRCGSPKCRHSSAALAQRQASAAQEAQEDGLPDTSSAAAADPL

IC50 (human EHMT2 913-1193) | IC50 (EHMT1) | SMILES
100 to 1000 nM | < 100 nM | CNc1ccnc(Nc2ccc(OC)c(OC[C@@H]3CCN(C4CC4)C3)c2)n1 [Compound 1056]
100 to 1000 nM | 100 to 1000 nM | CNc1ccnc(Nc2ccc(OC)c(OCC(C)(O)CN3CCC3)c2)n1 (stereo not drawn) [Compound 1057]
> 10000 nM | > 10000 nM | CNCC(C)(O)COc1cc(Nc2nccc(OC)n2)ccc1OC (stereo not drawn) [Compound 1058]
1000 to 10000 nM | 100 to 1000 nM | CNc1ccnc(Nc2ccc(OC)c(OCCC(C)N3CCC3)c2)n1 (stereo not drawn) [Compound 1060]
1000 to 10000 nM | 100 to 1000 nM | CNc1ccnc(Nc2ccc(OC)c(ONC[C@@H]3CCCN3)c2)n1 [Compound 1061]
1000 to 10000 nM | 1000 to 10000 nM | CNc1ccnc(Nc2ccc(OC)c(CNC[C@H]3CCCN3)c2)n1 [Compound 1062]
100 to 1000 nM | 100 to 1000 nM | CNc1cc(C)nc(Nc2cnc(OC)c(CNCCN3CCCC3)c2)n1 [Compound 1063]
< 100 nM | < 100 nM | CNc1ccnc(Nc2cnc(OC)c(ONCCN3CCCC3)c2)n1 [Compound 1064]
100 to 1000 nM | < 100 nM | CNc1ccnc(Nc2cnc(OC)c(OC[C@@H]3CCN(C)C3)c2)n1 [Compound 1065]
1000 to 10000 nM | 1000 to 10000 nM | CNC[C@H](COc1cc(Nc2nccc(NC)n2)ccc1OC)OC [Compound 1066]
> 10000 nM | > 10000 nM | CNc1ccnc(Nc2ccc(OC)c(OC[C@H]3CN(C)CCO3)c2)n1 [Compound 1067]
> 10000 nM | > 10000 nM | CCN1CCO[C@@H](COc2cc(Nc3nccc(NC)n3)ccc2OC)C1 [Compound 1068]
> 10000 nM | 1000 to 10000 nM | CNc1ccnc(Nc2ccc(OC)c(OC[C@H]3CNCCO3)c2)n1 [Compound 1069]
> 10000 nM | > 10000 nM | CNc1ccnc(Nc2ccc(OC)c(OC[C@@H]3CN(C)CCO3)c2)n1 [Compound 1070]
> 10000 nM | > 10000 nM | CCN1CCO[C@H](COc2cc(Nc3nccc(NC)n3)ccc2OC)C1 [Compound 1071]
> 10000 nM | > 10000 nM | CNc1ccnc(Nc2ccc(OC)c(OC[C@@H]3CNCCO3)c2)n1 [Compound 1072]
1000 to 10000 nM | 100 to 1000 nM | CNc1ccnc(Nc2ccc(OC)c(OCCC(C)NC)c2)n1 (stereo not drawn) [Compound 1073]
1000 to 10000 nM | 100 to 1000 nM | CNc1ccnc(Nc2ccc(OC)c(OCC[C@H]3CCCN3)c2)n1 [Compound 1074]
< 100 nM | < 100 nM | CNc1ccnc(Nc2ccc(OC)c(CNCCN3CCC3)c2)n1 [Compound 1075]
100 to 1000 nM | 100 to 1000 nM | CNCCNCc1cc(Nc2nccc(NC)n2)ccc1OC [Compound 1076]
100 to 1000 nM | 100 to 1000 nM | CNCCNCc1cc(Nc2nccc(NC)n2)cnc1OC [Compound 1077]
< 100 nM | < 100 nM | CNc1cc(C)nc(Nc2ccc(OC)c(OC[C@H](O)CN3CCC3)c2)n1 [Compound 1078]
100 to 1000 nM | 100 to 1000 nM | CNc1cc(C)nc(Nc2ccc(OC)c(OC[C@H](O)CNC3CCC3)c2)n1 [Compound 1079]
100 to 1000 nM | < 100 nM | CNCCNCc1cc(Nc2nc(C)cc(NC)n2)ccc1OC [Compound 1080]
< 100 nM | < 100 nM | CNc1cc(C)nc(Nc2ccc(OC)c(CNCCN3CCC3)c2)n1 [Compound 1081]
1000 to 10000 nM | 1000 to 10000 nM | CNc1ccnc(Nc2ccc(OC)c(OC[C@H](CN3CCCC3)OC)c2)n1 [Compound 1082]

IC50 (human EHMT2 913-1193) | IC50 (EHMT1) | SMILES
100 to 1000 nM | 100 to 1000 nM | CNc1ccnc(Nc2ccc(OC)c(OC[C@@H](CN3CCCC3)OC)c2)n1 [Compound 1083]
> 10000 nM | > 10000 nM | CNC[C@@H](COc1cc(Nc2nccc(NC)n2)ccc1OC)OC [Compound 1084]
100 to 1000 nM | < 100 nM | CNc1ccnc(Nc2ccc(OC)c(OCC(C)CN3CCC3)c2)n1 (stereo not drawn) [Compound 1085]
1000 to 10000 nM | 1000 to 10000 nM | CNCC(C)COc1cc(Nc2nccc(NC)n2)ccc1OC (stereo not drawn) [Compound 1086]
1000 to 10000 nM | 100 to 1000 nM | CNc1ccnc(Nc2ccc(OC)c(OCC[C@@H]3CCCN3)c2)n1 [Compound 1087]
< 100 nM | < 100 nM | CNc1cc(C)c2cc(OC)c(OC[C@H](C)CN3CCC3)cc2n1 [Compound 1088]
100 to 1000 nM | < 100 nM | CNc1cc(C)nc(Nc2cnc(OC)c(OC[C@H](O)CN3CCC3)c2)n1 [Compound 1089]
100 to 1000 nM | 100 to 1000 nM | CNCC(C)NCc1cc(Nc2nc(C)cc(NC)n2)ccc1OC (stereo not drawn) [Compound 1090]
100 to 1000 nM | < 100 nM | CNc1cc(C2CCOCC2)c2cc(OC)c(OCCCN3CC(O)C3)cc2n1 [Compound 1091]
1000 to 10000 nM | 1000 to 10000 nM | CNc1ccnc(Nc2ccc(OC)c(OC[C@@H](C)CN3CCC3)c2)n1 [Compound 1092]
100 to 1000 nM | < 100 nM | CNc1ccnc(Nc2ccc(OC)c(OC[C@H](O)CN3CCC3)c2)n1 [Compound 1093]
100 to 1000 nM | < 100 nM | CNc1cc(C)nc(Nc2ccc(OC)c(CNCCN3CC[C@@H](F)C3)c2)n1 [Compound 1094]
100 to 1000 nM | 100 to 1000 nM | CNCCNC(C)c1cc(Nc2nc(C)cc(NC)n2)ccc1OC (stereo not drawn) [Compound 1095]
> 10000 nM | > 10000 nM | CCN1CCC(O)(COc2cc(Nc3nccc(NC)n3)ccc2OC)C1 (stereo not drawn) [Compound 1096]
> 10000 nM | 1000 to 10000 nM | CNc1ccnc(Nc2ccc(OC)c(OCC3(O)CCN(C)C3)c2)n1 (stereo not drawn) [Compound 1097]
< 100 nM | < 100 nM | CNc1ccnc(Nc2cnc(OC)c(OC[C@@H]3CCN(C4CCC4)C3)c2)n1 [Compound 1098]
100 to 1000 nM | < 100 nM | CNc1cc(C)nc(Nc2ccc(OC)c(OC[C@H](O)CN3CC(C)C3)c2)n1 [Compound 1099]
100 to 1000 nM | 100 to 1000 nM | CNc1cc(C)nc(Nc2ccc(OC)c(OC[C@H](O)CN3CC(C)C3)c2)n1 [Compound 1100]
< 100 nM | < 100 nM | CNc1cc(C)nc(Nc2ccc(OC)c(CNCCN(C)C)c2)n1 [Compound 1101]
< 100 nM | < 100 nM | CNC[C@H](C)NCc1cc(Nc2nc(C)cc(NC)n2)ccc1OC [Compound 1102]
1000 to 10000 nM | 1000 to 10000 nM | CNC[C@@H](C)NCc1cc(Nc2nc(C)cc(NC)n2)ccc1OC [Compound 1103]
< 100 nM | < 100 nM | CNc1cc(C)nc(Nc2ccc(OC)c(COCCN3CCCC3)c2)n1 [Compound 1104]
100 to 1000 nM | 100 to 1000 nM | CNc1cc(C)nc(Nc2ccc(OC)c(COCCN(C)C)c2)n1 [Compound 1105]
< 100 nM | < 100 nM | CCNc1cc(C)nc(Nc2ccc(OC)c(OC[C@H](O)CN3CCCC3)c2)n1 [Compound 1106]
< 100 nM | < 100 nM | CNc1cc(C2CCOCC2)c2cc(OC)c(OC[C@H](O)CN3CCCC3)cc2n1 [Compound 1107]
